# pKd: −log10 of the molar value.
# Columns and labels:
# AtCERK1 ectodomain = molecular target: T1, AtCERK1 ectodomain (Arabidopsis thaliana, UniProt A8R7E6); assay: biolayer interferometry, steady-state; format: binding; conditions: labelled compound; biotinylated (GlcNAc)5 immobilised on streptavidin sensor, protein in solution; PBS pH 7.4, 500 mM NaCl, 0.01% Tween20
# T1 construct: gene CERK1; ectodomain only (borders from reported crystal structure), gp67 signal peptide, C-terminal His6, Sf9 insect cells, glycosylated, ~35 kDa
# T1 sequence (A8R7E6 24-232 limits assumed): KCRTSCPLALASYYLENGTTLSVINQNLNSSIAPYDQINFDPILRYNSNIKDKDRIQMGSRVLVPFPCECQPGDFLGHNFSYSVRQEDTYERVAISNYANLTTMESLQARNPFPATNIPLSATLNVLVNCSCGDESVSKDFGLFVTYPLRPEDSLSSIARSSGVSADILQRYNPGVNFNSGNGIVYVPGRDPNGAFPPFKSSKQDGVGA
# NFRe kinase domain = molecular target: T2, NFRe kinase domain (Lotus japonicus, UniProt A8WHB6); assay: radioactive kinase assay, autoradiogram; format: biochemical; conditions: labelled compound ([gamma-32P]ATP); 100 µM ATP, MnCl2, MgCl2, HEPES pH 7, room temperature; autophosphorylation, myelin basic protein or NFR5 kinase domain as acceptor
# T2 construct: gene nfr1c
# NFR1 kinase domain = molecular target: T3, NFR1 kinase domain (Lotus japonicus, UniProt Q70KR7); assay: radioactive kinase assay, autoradiogram; format: biochemical; conditions: labelled compound ([gamma-32P]ATP); 100 µM ATP, MnCl2, MgCl2, HEPES pH 7, room temperature; NFR5 kinase domain as acceptor
# T3 construct: intracellular kinase domain, pET-32 Ek/LIC, E. coli Rosetta 2, tag cleaved with TEV
# T3 sequence (Q70KR7 254-623 limits assumed): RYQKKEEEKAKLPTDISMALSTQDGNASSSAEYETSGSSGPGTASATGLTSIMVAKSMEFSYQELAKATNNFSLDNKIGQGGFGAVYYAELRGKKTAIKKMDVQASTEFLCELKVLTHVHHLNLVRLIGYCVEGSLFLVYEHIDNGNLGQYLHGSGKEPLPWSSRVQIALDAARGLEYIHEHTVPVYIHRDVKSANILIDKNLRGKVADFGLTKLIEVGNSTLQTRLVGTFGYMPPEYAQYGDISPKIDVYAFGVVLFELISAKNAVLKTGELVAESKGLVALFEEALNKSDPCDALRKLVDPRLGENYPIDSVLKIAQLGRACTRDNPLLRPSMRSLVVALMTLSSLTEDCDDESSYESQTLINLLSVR
# T2 sequence (A8WHB6 entry or part of it): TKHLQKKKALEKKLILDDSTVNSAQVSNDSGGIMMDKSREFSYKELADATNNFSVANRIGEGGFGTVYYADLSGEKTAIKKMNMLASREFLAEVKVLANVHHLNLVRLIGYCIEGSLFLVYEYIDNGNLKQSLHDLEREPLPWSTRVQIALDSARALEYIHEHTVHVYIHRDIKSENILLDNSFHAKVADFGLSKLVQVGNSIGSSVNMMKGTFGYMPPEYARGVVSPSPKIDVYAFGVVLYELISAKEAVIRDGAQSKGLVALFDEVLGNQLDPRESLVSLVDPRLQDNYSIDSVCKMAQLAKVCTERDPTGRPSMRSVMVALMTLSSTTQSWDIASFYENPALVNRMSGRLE
Compound,pKd (AtCERK1 ectodomain),"radioactive kinase assay, autoradiogram (NFRe kinase domain)","radioactive kinase assay, autoradiogram (NFR1 kinase domain)"
CC(=O)N[C@@H]1[C@@H](O)[C@H](O[C@@H]2O[C@H](CO)[C@@H](O[C@@H]3O[C@H](CO)[C@@H](O[C@@H]4O[C@H](CO)[C@@H](O[C@@H]5O[C@H](CO)[C@@H](O)[C@H](O)[C@H]5NC(C)=O)[C@H](O)[C@H]4NC(C)=O)[C@H](O)[C@H]3NC(C)=O)[C@H](O)[C@H]2NC(C)=O)[C@@H](CO)O[C@H]1O [CO5],4.23,,
Nc1ncnc2c1ncn2[C@@H]1O[C@H](COP(=O)(O)OP(=O)(O)OP(=O)(O)O)[C@@H](O)[C@H]1O [ATP],,NFRe kinase transphosphorylated the myelin basic protein (MBP) substrate and autophosphorylated,NFR1 kinase serves as positive control for NFR5 kinase transphosphorylation

# From article PMC6025957, “Epidermal LysM receptor ensures robust symbiotic signalling in Lotus japonicus” (eLife, 2018)
